Measured values reported in PubChem BioAssay (NCI).
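A five-concentration, 48-hour dose response in 96-well plates underlies each endpoint, interpolated linearly between surrounding concentrations. TGI denotes the concentration required for complete inhibition of growth.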

Legend:
Test in all cases: NCI tumour cell line growth inhibition, 48 h
MOLT-4 leukemia = test system: MOLT-4 leukemia
HOP-62 NSCLC = test system: HOP-62 NSCLC
HCT-116 colon = test system: HCT-116 colon
COLO 205 colon = test system: COLO 205 colon
LOX IMVI melanoma = test system: LOX IMVI melanoma
SF-295 CNS = test system: SF-295 CNS
OVCAR-8 ovarian = test system: OVCAR-8 ovarian
U251 CNS = test system: U251 CNS
MALME-3M melanoma = test system: MALME-3M melanoma
K-562 leukemia = test system: K-562 leukemia
KM20L2 colon = test system: KM20L2 colon
M14 melanoma = test system: M14 melanoma
IGROV1 ovarian = test system: IGROV1 ovarian
RPMI-8226 leukemia = test system: RPMI-8226 leukemia
NCI-H23 lung = test system: NCI-H23 lung
SK-MEL-2 melanoma = test system: SK-MEL-2 melanoma
SF-539 CNS = test system: SF-539 CNS
TK-10 renal = test system: TK-10 renal
UO-31 renal = test system: UO-31 renal
OVCAR-4 ovarian = test system: OVCAR-4 ovarian
HOP-92 NSCLC = test system: HOP-92 NSCLC
786-0 renal = test system: 786-0 renal
A549 NSCLC = test system: A549 NSCLC
DMS 273 small cell lung = test system: DMS 273 small cell lung
NCI-H226 lung = test system: NCI-H226 lung
RXF 393 renal = test system: RXF 393 renal
SN12C renal = test system: SN12C renal
SK-MEL-28 melanoma = test system: SK-MEL-28 melanoma
HCT-15 colon = test system: HCT-15 colon
EKVX NSCLC = test system: EKVX NSCLC
SR leukemia = test system: SR leukemia
SNB-78 CNS = test system: SNB-78 CNS
SF-268 CNS = test system: SF-268 CNS
NCI-H460 lung = test system: NCI-H460 lung
SW-620 colon = test system: SW-620 colon
SNB-75 CNS = test system: SNB-75 CNS
CCRF-CEM leukemia = test system: CCRF-CEM leukemia
SK-OV-3 ovarian = test system: SK-OV-3 ovarian
HT29 colon = test system: HT29 colon
CAKI-1 renal = test system: CAKI-1 renal
A498 renal = test system: A498 renal
OVCAR-5 ovarian = test system: OVCAR-5 ovarian
UACC-62 melanoma = test system: UACC-62 melanoma
OVCAR-3 ovarian = test system: OVCAR-3 ovarian
ACHN renal = test system: ACHN renal
SNB-19 CNS = test system: SNB-19 CNS
SK-MEL-5 melanoma = test system: SK-MEL-5 melanoma
UACC-257 melanoma = test system: UACC-257 melanoma
DMS 114 small cell lung = test system: DMS 114 small cell lung
NCI-H522 lung = test system: NCI-H522 lung
HCC-2998 colon = test system: HCC-2998 colon
KM12 colon = test system: KM12 colon
HL-60(TB) leukemia = test system: HL-60(TB) leukemia
MDA-MB-231 breast = test system: MDA-MB-231 breast
MCF7 breast = test system: MCF7 breast
T-47D breast = test system: T-47D breast
PC-3 prostate = test system: PC-3 prostate
HS 578T breast = test system: HS 578T breast
BT-549 breast = test system: BT-549 breast
DU-145 prostate = test system: DU-145 prostate
NCI/ADR-RES ovarian = test system: NCI/ADR-RES ovarian
MDA-MB-435 = test system: MDA-MB-435
MDA-N = test system: MDA-N

FC(F)(F)c1ccc(C=NC23CC4CC(CC(C4)C2)C3)cc1
TGI (MOLT-4 leukemia): > 100 µM
TGI (HOP-62 NSCLC): > 100 µM
TGI (HCT-116 colon): > 100 µM
TGI (COLO 205 colon): > 100 µM
TGI (LOX IMVI melanoma): > 100 µM
TGI (SF-295 CNS): > 100 µM
TGI (OVCAR-8 ovarian): > 100 µM
TGI (U251 CNS): > 100 µM
TGI (MALME-3M melanoma): > 100 µM
TGI (K-562 leukemia): > 100 µM
TGI (KM20L2 colon): > 100 µM
TGI (M14 melanoma): > 100 µM
TGI (IGROV1 ovarian): > 100 µM
TGI (RPMI-8226 leukemia): > 100 µM
TGI (NCI-H23 lung): > 100 µM
TGI (SK-MEL-2 melanoma): > 100 µM
TGI (SF-539 CNS): > 100 µM
TGI (TK-10 renal): > 100 µM
TGI (UO-31 renal): > 100 µM
TGI (OVCAR-4 ovarian): > 100 µM
TGI (HOP-92 NSCLC): > 100 µM
TGI (786-0 renal): > 100 µM
TGI (A549 NSCLC): > 100 µM
TGI (DMS 273 small cell lung): > 100 µM
TGI (NCI-H226 lung): > 100 µM
TGI (RXF 393 renal): > 100 µM
TGI (SN12C renal): > 100 µM
TGI (SK-MEL-28 melanoma): > 100 µM
TGI (HCT-15 colon): > 100 µM
TGI (EKVX NSCLC): > 100 µM
TGI (SR leukemia): > 100 µM
TGI (SNB-78 CNS): > 100 µM
TGI (SF-268 CNS): > 100 µM
TGI (NCI-H460 lung): > 100 µM
TGI (SW-620 colon): > 100 µM
TGI (SNB-75 CNS): > 100 µM
TGI (CCRF-CEM leukemia): > 100 µM
TGI (SK-OV-3 ovarian): > 100 µM
TGI (HT29 colon): > 100 µM
TGI (CAKI-1 renal): > 100 µM
TGI (A498 renal): > 100 µM
TGI (OVCAR-5 ovarian): > 100 µM
TGI (UACC-62 melanoma): > 100 µM
TGI (OVCAR-3 ovarian): > 100 µM
TGI (ACHN renal): > 100 µM
TGI (SNB-19 CNS): > 100 µM
TGI (SK-MEL-5 melanoma): > 100 µM
TGI (UACC-257 melanoma): > 100 µM
TGI (DMS 114 small cell lung): > 100 µM
TGI (NCI-H522 lung): > 100 µM
TGI (HCC-2998 colon): > 100 µM
TGI (KM12 colon): > 100 µM
TGI (HL-60(TB) leukemia): > 100 µM

FC(F)(F)c1ccc2c(c1)nc(Cc1ccccc1)n2C[C@@H]1CCCN2CCCCC12 (some centres not stated)
TGI (MOLT-4 leukemia): > 52.7 µM
TGI (MDA-MB-231 breast): 27.8 µM
TGI (HOP-62 NSCLC): 28.7 µM
TGI (HCT-116 colon): 27.9 µM
TGI (COLO 205 colon): 31.2 µM
TGI (LOX IMVI melanoma): 30.3 µM
TGI (SF-295 CNS): 29.6 µM
TGI (OVCAR-8 ovarian): 29.7 µM
TGI (U251 CNS): 29.2 µM
TGI (MALME-3M melanoma): 31.1 µM
TGI (K-562 leukemia): > 64.8 µM
TGI (MCF7 breast): 28.6 µM
TGI (M14 melanoma): 23 µM
TGI (IGROV1 ovarian): 28.9 µM
TGI (RPMI-8226 leukemia): 82.7 µM
TGI (NCI-H23 lung): 30.8 µM
TGI (T-47D breast): 30.4 µM
TGI (SK-MEL-2 melanoma): 30.6 µM
TGI (SF-539 CNS): 35.6 µM
TGI (TK-10 renal): 31.3 µM
TGI (UO-31 renal): 0.744 µM
TGI (OVCAR-4 ovarian): 31.5 µM
TGI (HOP-92 NSCLC): 27.2 µM
TGI (786-0 renal): 28.6 µM
TGI (PC-3 prostate): 28.5 µM
TGI (A549 NSCLC): 28.8 µM
TGI (NCI-H226 lung): 40.4 µM
TGI (RXF 393 renal): 23 µM
TGI (SN12C renal): 27 µM
TGI (SK-MEL-28 melanoma): 32.3 µM
TGI (HCT-15 colon): 30.6 µM
TGI (EKVX NSCLC): 28.9 µM
TGI (HS 578T breast): 57 µM
TGI (SR leukemia): > 100 µM
TGI (SF-268 CNS): 31 µM
TGI (NCI-H460 lung): 31.9 µM
TGI (SW-620 colon): > 65.7 µM
TGI (SNB-75 CNS): 29.9 µM
TGI (CCRF-CEM leukemia): > 54.8 µM
TGI (SK-OV-3 ovarian): 31.3 µM
TGI (HT29 colon): 26.8 µM
TGI (BT-549 breast): 28.7 µM
TGI (CAKI-1 renal): 31.1 µM
TGI (A498 renal): 29.1 µM
TGI (OVCAR-5 ovarian): 31.7 µM
TGI (UACC-62 melanoma): 30.7 µM
TGI (DU-145 prostate): 29.3 µM
TGI (OVCAR-3 ovarian): 28 µM
TGI (ACHN renal): 26.5 µM
TGI (SNB-19 CNS): 28.6 µM
TGI (NCI/ADR-RES ovarian): 30.9 µM
TGI (SK-MEL-5 melanoma): 29.6 µM
TGI (UACC-257 melanoma): 28.9 µM
TGI (NCI-H522 lung): 31.6 µM
TGI (HCC-2998 colon): 10.6 µM
TGI (KM12 colon): 30.3 µM
TGI (MDA-MB-435): 30.4 µM
TGI (MDA-N): 26.2 µM
TGI (HL-60(TB) leukemia): 13.9 µM
